{"source": "patent US6924309B2", "about": "(Children, Youth and Women's Health Service Incorporated, priority 1999, dated 2005)", "key": {"[1]": {"biological_target": "T1, 15-LO (Glycine max, UniProt P08170)", "T1 construct": "purchased Sigma Chemical Company", "T1 sequence (P08170 1-839)": "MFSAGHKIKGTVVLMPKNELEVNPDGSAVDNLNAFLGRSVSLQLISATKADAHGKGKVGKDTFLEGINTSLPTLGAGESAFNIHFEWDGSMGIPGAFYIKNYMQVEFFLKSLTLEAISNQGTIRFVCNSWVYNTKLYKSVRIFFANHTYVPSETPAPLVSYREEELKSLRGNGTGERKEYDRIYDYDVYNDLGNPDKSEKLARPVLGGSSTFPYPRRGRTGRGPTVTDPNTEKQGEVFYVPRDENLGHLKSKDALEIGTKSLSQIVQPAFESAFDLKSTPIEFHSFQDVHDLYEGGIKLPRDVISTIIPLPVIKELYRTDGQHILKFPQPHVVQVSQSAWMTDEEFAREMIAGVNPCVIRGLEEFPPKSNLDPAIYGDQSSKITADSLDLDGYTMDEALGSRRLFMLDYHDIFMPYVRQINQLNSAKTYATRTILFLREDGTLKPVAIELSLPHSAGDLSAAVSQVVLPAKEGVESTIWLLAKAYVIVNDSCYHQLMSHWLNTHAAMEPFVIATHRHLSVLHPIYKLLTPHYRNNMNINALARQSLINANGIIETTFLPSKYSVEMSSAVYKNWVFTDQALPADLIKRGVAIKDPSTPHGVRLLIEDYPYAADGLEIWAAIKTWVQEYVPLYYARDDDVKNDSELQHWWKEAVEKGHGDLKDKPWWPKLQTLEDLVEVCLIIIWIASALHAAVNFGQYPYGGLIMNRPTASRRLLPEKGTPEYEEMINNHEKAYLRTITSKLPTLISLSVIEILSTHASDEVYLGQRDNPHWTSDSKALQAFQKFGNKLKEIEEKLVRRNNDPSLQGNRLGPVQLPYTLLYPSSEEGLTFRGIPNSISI", "assay": "15-LO catalysed oxidation of the nitro compounds (substrate test)", "type": "biochemical, soybean", "details": "for Substrate for 15-LO: pH 9.0 buffer, UV 234 nm", "procedure": "Based on this consideration, 5-LO, 12-LO and 15-LO catalysed oxidation of the nitro compounds (4a, 4b, 6a, 6b, 8a and 8b) was investigated. Each of the nitro compounds was treated with 15-LO in pH 9.0 buffer (or 5-LO in pH 6.3 buffer and 12-LO in pH 7.4 buffer), and the formation of 15-hydroperoxy derivatives (or 5-hydroperoxy or 12-hydroperoxy derivatives) over time was monitored by UV spectroscopy at 234 nm."}, "[2]": {"system": "Plasmodium falciparum isolates 3D7, FC27, K+", "assay": "Radiometric (3H-hypoxanthine) assay on asexual blood stages of P. falciparum", "type": "cell-based", "outline": "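Isolates grown in human O+ erythrocytes with 10% AB serum at 37 °C; cultures at 1×10^8 erythrocytes/ml were exposed to the fatty acids for 4 h, then pulsed with 3H-hypoxanthine for a further 18 h. Incorporated radioactivity was counted and expressed as % growth inhibition versus diluent-treated cultures.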"}, "[3]": {"system": "human neutrophils", "assay": "Neutrophil lucigenin dependent chemiluminescence (superoxide production)", "type": "cell-based", "details": "20 μM", "procedure": "(§1) The activation of human neutrophils by nitro compounds was assessed by the ability to stimulate superoxide production (chemiluminescence response) and release of lysosomal enzymes from specific and azurophilic granules. Neutrophils were prepared from whole blood taken from normal healthy volunteers by the rapid-single step procedure^(41). Briefly, blood anticoagulated with heparin was carefully layered on a hypaque-ficoll medium of 1.114 g/ml and centrifuged in swing-out-buckets at 200 g/30 min. The leukocytes were resolved into two bands and the erythrocytes sedimented at the bottom of the tube. The second leukocyte band approximately 0.7 cm from the mononuclear cell containing band at the interface contained neutrophils of >98% purity and >99% viability (trypan blue dye exclusion criteria). The neutrophils were carefully harvested with a pasteur pipette, and washed and resuspended in tissue culture medium. The respiratory burst response of neutrophils was assessed by measuring superoxide production by the lucigenin dependent chemiluminescence assay essentially as described previously^(42). Briefly, 1×10^6 neutrophils (100 μl) in HBSS were treated with the nitro analogues of fatty acids (100 μl), then lucigenin was added and the volume made up. FIG. 7 illustrates the effects of Lx compounds on the neutrophil chemiluminescence reponse. Results are the means ±SEM of 4-12 experiments. […]"}, "[4]": {"system": "human neutrophils", "assay": "Neutrophil degranulation: release of vitamin B12 binding protein", "type": "cell-based", "details": "20 μg/ml", "procedure": "as §1, with “up.” for “up. FIG. 7 illustrates the effects of Lx compounds on the neutrophil chemiluminescence reponse. Results are the means ±SEM of 4-12 experiments.”"}}, "data": [{"smiles": "CCCCC/C=C\\C/C=C\\C/C=C\\C/C=C\\CCCC(CCC(=O)O)[N+](=O)[O-]", "note": "(centres unmarked) [Lx7, (a11-Z)-4-Nitrotricosa-8,11,14,17-tetraenoic acid]", "values": [{"measurement": "Vmax for 15-LO catalysed oxidation of the compound", "setting": "[1]; Lineweaver Burke", "value": "Vmax = 24.48 μM/min"}, {"measurement": "Vmax for 15-LO catalysed oxidation of the compound", "setting": "[1]; Lineweaver Burke, listed as 6b", "value": 24.48, "unit": "µM/min"}, {"measurement": "Km", "setting": "[1]; Lineweaver Burke, read-out: Km for 15-LO catalysed oxidation of the compound", "value": 8.4, "unit": "µM"}, {"measurement": "Substrate for 15-LO", "setting": "[1]; listed as 6b", "value": "substrate"}, {"measurement": "Substrate for 15-LO", "setting": "[1]; listed as (all-Z)-4-nitrotricosa-8,11,14,17-tetraenoic acid", "value": "good substrate"}, {"measurement": "Antimalarial activity (in words)", "setting": "[2]", "value": "did not have appreciable antimalarial activity"}, {"measurement": "Neutrophil chemiluminescence response", "setting": "[3]", "value": "marginal compared to 20:4n-6 and 22:6n-3"}, {"measurement": "Release of vitamin B12 binding protein (specific granule marker)", "setting": "[4]", "value": "as potent as 20:4n-6 and 22:6n-3"}]}]}
